# Patent US6165441A, “Method of diagnosis and photodynamic therapy of tumours” (Nycomed Amersham Sorin SRL, priority 1995, dated 2000)
# What was measured:
# [1] = Biodistribution of ^131 I radioactivity in excised tissues after i.v. injection (pharmacokinetic studies, gamma counter); type: in vivo, Balb/c mice; details: for Recovery from BRAIN / Recovery from KIDNEY / Recovery from LIVER / Recovery from LUNG / Recovery from MUSCLE / Recovery from SPLEEN: 0.096 MBq/g in DPPC liposomes, average of three mice ± s.d.
# Procedure: (§1) Experimental tests were carried out in Balb/c mice affected by a MS-2 fibrosarcoma. This tumour model had been previously used for extensive PDT studies with unlabelled ZnPc.
# (§2) For tumour implantation 2×10^5 cells in 0.2 ml of sterile physiological solution were intramuscularly injected into the right hind leg of female Balb/c mice having a body wt. of 20-22 g. All the experiments were started on the eighth day after tumour implantation, when the external diameter was ca. 0.8 cm and no detectable spontaneous tumour necrosis had generally occurred. When necessary, mice were anesthetized by i.p. injection of Ketalar (150 mg/kg).
# ^131 I--Zn(II)-phthalocyanine was incorporated into small unilamellar vesicles of DPPC following the procedure described by Valduga et al., J.Inorg.Biochem. (1987), 25-59.
# (§3) Balb/c mice bearing the MS-2 fibrosarcoma were injected in the tail vein with ^131 I--ZnPc at does between 0.024 and 0.096 MBq/g. At predetermined times up to 24 hours after injection, the whole body of the mice was scanned with a Gamma Camera General Electric Stargem in order to ensure the radioactivity levels at different anatomical sites. Then, the mice were sacrificed by prolonged exposure to ether vapours; the blood, tumour and selected normal tissues (muscle, skin, lung, liver, spleen, kidney, brain) were rapidly taken. The blood was centrifuged to remove the erythrocytes and the radioactivity in the plasma (100 μl) was analyzed. Moreover, tissues were washed with physiological solution, weighed, introduced into RIA test tubes and centrifuged for 10 minutes and 2000 g. The radioactivity was collected for 1 minute by a gamma counter (Packard Selektronik Design). A different group of mice was injected as above described, sacrificed at 3 hours, 15 hours, 24 hours, 48 hours and 96 hours after injection (three mice at each time) and the radioactivity in plasma and tissues homogenates was determined.
# [2] = Clearance of ^131 I--ZnPc from serum; type: in vivo, Balb/c mice
# Procedure: as §3
# [3] = In vivo whole body Gamma Camera scanning of radioactivity distribution; parameters: species or system Balb/c mice
# Procedure: as §3
# [4] = test system: MS-2 fibrosarcoma; test: Tumour accumulation and tumour/muscle radioactivity ratio; type: in vivo, Balb/c mice; details: for Recovery from TUMOUR: average of three mice ± s.d.; for Kinetics of tumour uptake and clearance, ^131 I--ZnPc versus ZnPc: mouse, in vivo
# Procedure: as §1, §2, §3
# FIG. 2 is an histogram showing the ratio between the tumour/muscle radioactivity of ^131 I--ZnPc at different times after injection of 0.096 MBq/g ^131 I--ZnPc in DPPC liposomes; averaged ratios for three independently analyzed mice±s.d..
# FIG. 3 is an histogram showing the ratio between the tumour/muscle radioactivity of ^131 I--ZnPc at different concentrations at 24 hours after injection of ^131 I--ZnPc in DPPC liposomes; averaged ratio for three independently analyzed mice±s.d..
# [5] = test system: tumour; details: cited from earlier work
# [6] = i.v. 0.096 MBq/g in DPPC liposomes
molecule,measurement,setting,value
^131 I--Zn(II)-phthalocyanine [^131 I--ZnPc],Recovery from BRAIN,[1]; 3 h,11.7 ± 0.1 CPM/mg of tissue
same,Recovery from KIDNEY,[1]; 3 h,156.9 ± 9.7 CPM/mg of tissue
same,Recovery from LIVER,[1]; 3 h,984.2 ± 15.7 CPM/mg of tissue
same,Recovery from LUNG,[1]; 3 h,168.3 ± 5.6 CPM/mg of tissue
same,Recovery from MUSCLE,[1]; 3 h,41.1 ± 3.6 CPM/mg of tissue
same,Recovery from SPLEEN,[1]; 3 h,600.9 ± 8.1 CPM/mg of tissue
same,Recovery from BRAIN,[1]; 15 h,5.2 ± 1.5 CPM/mg of tissue
same,Recovery from KIDNEY,[1]; 15 h,84.4 ± 8.4 CPM/mg of tissue
same,Recovery from LIVER,[1]; 15 h,871.1 ± 146.8 CPM/mg of tissue
same,Recovery from LUNG,[1]; 15 h,76.2 ± 31.4 CPM/mg of tissue
same,Recovery from MUSCLE,[1]; 15 h,22.4 ± 9.3 CPM/mg of tissue
same,Recovery from SPLEEN,[1]; 15 h,503.7 ± 46.8 CPM/mg of tissue
same,Recovery from BRAIN,[1]; 24 h,4.3 ± 0.6 CPM/mg of tissue
same,Recovery from KIDNEY,[1]; 24 h,77.3 ± 11.2 CPM/mg of tissue
same,Recovery from LIVER,[1]; 24 h,1043.7 ± 72.5 CPM/mg of tissue
same,Recovery from LUNG,[1]; 24 h,83.3 ± 12.4 CPM/mg of tissue
same,Recovery from MUSCLE,[1]; 24 h,23.7 ± 2.0 CPM/mg of tissue
same,Recovery from SPLEEN,[1]; 24 h,635.1 ± 65.8 CPM/mg of tissue
same,Recovery from BRAIN,[1]; 48 h,3.4 CPM/mg of tissue
same,Recovery from KIDNEY,[1]; 48 h,59.4 CPM/mg of tissue
same,Recovery from LIVER,[1]; 48 h,849.1 ± 90.3 CPM/mg of tissue
same,Recovery from LUNG,[1]; 48 h,73.4 CPM/mg of tissue
same,Recovery from MUSCLE,[1]; 48 h,22.3 CPM/mg of tissue
same,Recovery from SPLEEN,[1]; 48 h,549.7 CPM/mg of tissue
same,Recovery from BRAIN,[1]; 96 h,2.0 ± 0.4 CPM/mg of tissue
same,Recovery from KIDNEY,[1]; 96 h,61.6 ± 16.8 CPM/mg of tissue
same,Recovery from LIVER,[1]; 96 h,831.9 ± 52.5 CPM/mg of tissue
same,Recovery from LUNG,[1]; 96 h,52.1 ± 6.9 CPM/mg of tissue
same,Recovery from MUSCLE,[1]; 96 h,15.8 ± 2.5 CPM/mg of tissue
same,Recovery from SPLEEN,[1]; 96 h,413.0 ± 42.7 CPM/mg of tissue
same,Amounts recovered from muscle,[1]; at all times,small amounts of phthalocyanine are recovered from muscle at all times
same,Elimination from liver and spleen,[1]; during the initial four days,relatively slow elimination at least during the initial four days
same,Amounts recovered from brain,[1]; i.v. in DPPC liposomes,minimal amounts
same,Levels in kidneys,[1]; i.v. in DPPC liposomes,comparatively low levels observed in kidneys
same,Recovery in the liver and spleen,[1]; i.v. in DPPC liposomes,very high in the liver and spleen
same,Toxic effects on the central nervous system,[1]; inferred from minimal brain recovery,unlikely
same,Amount cleared via the kidneys,[1]; main elimination via bile-gut pathway,only minor amounts cleared via the kidneys
same,Amount accumulated by liver and spleen,"[1]; mouse, in vivo",large amount accumulated by liver and spleen
same,Accumulation in the liver compared with ZnPc,[1]; short post-injection times,greater accumulation
same,Liver concentration relative to tumour,[1]; short post-injection times,ca. 7 fold
same,Clearance rate from serum,[2]; [6],particularly fast during the initial 15 hours after administration
same,Elimination from mouse serum,"[2]; i.v. 0.096 MBq/g in DPPC liposomes, within 96 hours",almost completely eliminated from mouse serum within 96 hours
same,Clearance profile from the serum,"[2]; mouse, in vivo",apparently polyphasic clearance from the serum
same,Initial radioactivity disappearing from serum,"[2]; within the initial 24 hours post-injection, almost",~80%
same,Localization of radioactivity in the whole animal,[3]; at all examined time intervals,strictly localized at the level of liver and tumour with no general delocalization throughout the organism
same,Dissociation of ^131 I from the phthalocyanine in vivo,[3]; inferred from whole-animal distribution,unlikely that ^131 I is dissociated from the phthalocyanine to any significant extent
same,Time of maximum tumour-to-muscle concentration ratio,"[4]; 0.096 MBq/g in DPPC liposomes, FIG. 2",15 h
same,Tumour-to-muscle concentration ratio over the studied time interval,"[4]; 0.096 MBq/g in DPPC liposomes, after 15 hours, FIG. 2",remains at an essentially constant level throughout the studied time interval
same,Recovery from TUMOUR,"[4]; 3 h, 0.096 MBq/g in DPPC liposomes",140.3 ± 38.6 CPM/mg of tissue
same,Recovery from TUMOUR,"[4]; 15 h, 0.096 MBq/g in DPPC liposomes",182.7 ± 16.0 CPM/mg of tissue
same,Recovery from TUMOUR,"[4]; 24 h, 0.096 MBq/g in DPPC liposomes",212.9 ± 8.6 CPM/mg of tissue
same,Effect of injected dose on tumour/muscle ratio,"[4]; 24 hours after administration, 0.024 to 0.096 MBq/g, FIG. 3",affected to a minor extent by the injected dose
same,Recovery from TUMOUR,"[4]; 48 h, 0.096 MBq/g in DPPC liposomes",180.7 CPM/mg of tissue
same,Recovery from TUMOUR,"[4]; 96 h, 0.096 MBq/g in DPPC liposomes",162.2 ± 19.5 CPM/mg of tissue
same,Tumour localization,[4]; ^131 I label,efficient and selective tumour localizer
same,Time of maximal tumour concentration,[4]; after ca.,ca. 24 hours
same,Rate of uptake by the tumour,[4]; compared with several normal tissues,relatively low rate of uptake by the tumour as compared with several normal tissues
same,Time of maximum accumulation in tumour,[4]; [6],24 h
same,"Kinetics of tumour uptake and clearance, ^131 I--ZnPc versus ZnPc",[4],quite similar
same,Selectivity of tumour targeting (tumour/muscle ratio) compared with ZnPc,[4]; tumour/muscle ratios of phthalocyanine recovery,almost twice higher selectivity of tumour targeting
"[Zn+2].c1ccc2c(c1)-c1nc-2nc2[n-]c(nc3nc([n-]c4nc(n1)-c1ccccc1-4)-c1ccccc1-3)c1ccccc21 [ZnPc, Zn(II)-phthalocyanine]",Selectivity of tumour accumulation,[5]; in vivo,enhanced selectivity of tumour accumulation
same,Lowest phototherapeutically active dose,"[5]; liposome-incorporated, doses as low as",0.15 mg/kg body wt.
same,"Kinetics of tumour uptake and clearance, ^131 I--ZnPc versus ZnPc",[4],quite similar
